Data set [1] concerns the target EVH-1 domain. In words: Binding affinity to EVH-1 domain by isothermal titration calorimetry (ITC), Table 1. The note with it: for Kd / ITC ΔG: ITC; for Kd: EVH-1 domain; for ITC ΔG: free enthalpy of protein-ligand complex. Here is the method:
(§1) The substitution of the diproline units of the FPPPP motif with the Fmoc-ProMs was carried out. The binding affinities of the ligands to the domain were subsequently determined by means of isothermal titration calorimetry (ITC) on the basis of the dissociation constant (Kd) or the free enthalpy (ΔG) of the protein-ligand complexes. The results of the measurements were additionally checked by means of fluorescence titration (FT). A stronger binding of the respective ligand is expressed by a smaller value for Kd or a more negative value for ΔG. The correlation between the dissociation constant (Kd) and the free enthalpy (ΔG) is illustrated with the following equations: […]
(ITC needs no label: the signal is the heat of the interaction.)

Data set [2] deals with EVH-1 domain. Kind of data set: Binding affinity to EVH-1 domain by fluorescence titration (FT), Table 1. Particulars: for Kd: EVH-1 domain; for FT ΔG: free enthalpy of protein-ligand complex. The procedure:
as §1

Data set [3] in a line: in vitro. Format: in vitro ADME. The note with it: for Plasma stability, % remaining (Tlast 240 min): 4 h; for half-life: plasma. The procedure:
An in vitro assay was performed in the plasma of mice and humans.

Data set [4] is described as follows: in vitro. The note with it: mouse, microsomes. The class given is in vitro ADME.
A short description of data set [5]: in vitro. Format: in vitro ADME. Particulars: human, microsomes.
Data set [6] deals with T1, VASP-EVH1 (Homo sapiens, UniProt P50552).
T1 construct: VASP-EVH-1, EnaH-EVH-1 and EVL-EVH-1 domain
Kind of data set: Binding data to VASP-EVH1 (text, method not stated). Particulars: text b160.

A further data set deals with ena/VASP-EVH1. In words: Inhibition of ena/VASP-EVH1-mediated protein-protein interactions, affinity for the target (statements in words). The class given is binding. The note with it: result in words.
The subject of data set [7] is MDA MB 231 breast cancer cells. Kind of data set: Matrigel migration assay (chemotaxis and motility). The class given is cell-based. The note with it: relative to the baseline value (DMSO/no FBS gradient). The procedure: FIG. 1: Inhibition of the chemotaxis and motility of highly invasive tumor cells in a matrigel migration assay.
Cell culture experiments were performed with MDA MB 231 breast cancer cells.
Example Compound III inhibits the migration of MDA MB 231 breast cancer cells by more than 90% relative to the baseline value (DMSO/no FBS gradient) (FIGS. 1 A and B).

The next data set deals with cells. In words: Cellular toxicity. Particulars: result in words. The class given is cell-based. An excerpt: FIG. 2: Cellular toxicity of the compound in accordance with Formula III.
The low or absent cellular toxicity likewise constitutes a surprising and advantageous property of the compounds. The inventive compounds bind to the target receptor not only with very low dissociation constants, but also with high specificity. For medical use of the compounds this is to be considered as an advantage.

The target in data set [8] is T1, VASP-EVH1. Kind of data set: Binding affinity by FT, VASP-EVH1. The procedure:
as §1
(§2) A further analysis to test the dissociation constant (Kd) of a variety of other compounds was carried out by means of FT and ITC.

Data set [9] has as its target T1, VASP-EVH1. Kind of data set: Binding affinity by ITC, VASP-EVH1. The procedure:
as §1, §2

Data set [10] has as its target T2, EnaH-EVH1 (Homo sapiens, UniProt Q8N8S7).
T2 construct: VASP-EVH-1, EnaH-EVH-1 and EVL-EVH-1 domain
Kind of data set: Binding affinity by FT, EnaH-EVH1. The procedure:
as §1, §2

Data set [11] addresses T2, EnaH-EVH1. In words: Binding affinity by ITC, EnaH-EVH1. The procedure: as §1, §2
The target of data set [12] is T3, EVL-EVH1 (Homo sapiens, UniProt Q9UI08).
T3 construct: VASP-EVH-1, EnaH-EVH-1 and EVL-EVH-1 domain
In words: Binding affinity by FT, EVL-EVH1. Here is the method:
as §1, §2

Data set [13] has as its target T3, EVL-EVH1. Kind of data set: Binding affinity by ITC, EVL-EVH1. Here is the method:
as §1, §2

Data set [14] can be described thus: in vitro. The note with it: mouse, mouse plasma.
The nature of data set [15]: in vitro. The note with it: human, human plasma.
The next data set deals with target cells. Kind of data set: Cell experiments: absorption of the compound by target cells. The class given is cell-based. The note with it: ester derivative versus carboxylic acid ligand; result in words. An excerpt: Within the framework of cell experiments it could further be shown that, by replacing the carboxylic acid ligand with the ester derivative (NBD-Phe(2-CI)-[ProM-2][ProM-1]-OEt), the ability of the compound to be absorbed by the target cells could be improved. The absorption of the substance in the cell could thus be increased, without loss of the advantageous binding properties.

Where only a bound is given, the exact number is not on record here.

T2 sequence (Q8N8S7 1-111 limits assumed): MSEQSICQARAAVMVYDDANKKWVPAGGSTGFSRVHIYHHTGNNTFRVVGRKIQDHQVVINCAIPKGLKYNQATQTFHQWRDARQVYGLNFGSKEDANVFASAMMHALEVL
T3 sequence (Q9UI08 1-112 limits assumed): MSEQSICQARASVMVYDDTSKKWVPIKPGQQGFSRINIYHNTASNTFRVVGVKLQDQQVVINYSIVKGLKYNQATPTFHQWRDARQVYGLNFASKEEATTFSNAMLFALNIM
T1 sequence (P50552 2-113 limits assumed): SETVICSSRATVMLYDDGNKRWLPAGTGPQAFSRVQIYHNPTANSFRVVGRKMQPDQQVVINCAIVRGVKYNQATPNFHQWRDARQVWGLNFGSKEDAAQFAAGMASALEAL

In general, Kd refers to a measure of binding affinity in units of concentration. Read a high Kd as a looser complex. In the case of Ac-Phe(2-Cl)-PP[ProM-1]-OH, at EVH-1 domain [1], the Kd was found to be 14.1 µM and the “ITC ΔG” value was -6.62 kcal/mol. Also, at EVH-1 domain [2], the Kd came out at 3.2 µM and the “FT ΔG” value is -7.5 kcal/mol.
The like results for Ac-Phe(2-Cl)-[ProM-2][ProM-4]-OH were, in that order, 9.7 µM, -6.84 kcal/mol, 1.6 µM and -7.91 kcal/mol.
As to “Ac-Phe(2-CI)-[ProM-2][ProM-1]-NH2 [Compound 4C]”, the “Plasma stability, % remaining (Tlast 240 min)” value in the data set “in vitro [3]” (human) came to 80.3%; in “in vitro [3]” (mouse), 94.7%. Moreover, the “Liver microsomal stability Clint” value in the data set “in vitro [4]” is reported as 34.0 μl/min/mg protein; in “in vitro [5]”, 11.6 μl/min/mg protein. The “Liver microsomal stability t½” value in the data set “in vitro [4]” and in the data set “in vitro [5]” was above 1 h in each case.
Regarding Ac-Phe(2-Cl)-PPPP-OH, on EVH-1 domain [1], the Kd turned out to be 18 µM and the “ITC ΔG” value was -6.45 kcal/mol. Further, at EVH-1 domain [2], the Kd was determined as 13 µM and the “FT ΔG” value is -6.64 kcal/mol.
With `CC(=O)NC(Cc1ccccc1Cl)C(=O)N1CCCC12C=CC1CCC(C(=O)N3CCC4C=CC5C(C)CC(C(=O)O)N5C(=O)C43)N1C2=O` (stereo not shown) [Ac-Phe(2-Cl)-[ProM-2][ProM-9]-OH], on EVH-1 domain [1], the Kd is 0.69 µM and the “ITC ΔG” value was -8.41 kcal/mol. The “free enthalpy (Gibbs free energy) gain ΔΔG over the ligand optimization” value with EVH-1 domain [1] (determined by means of ITC, overall progression from the wild-type ligand) is -3.8 kcal/mol. At EVH-1 domain [2], binding was characterised by a dissociation constant (Kd) of 0.28 µM and the “FT ΔG” value is -8.94 kcal/mol.
In the case of `CCOC(=O)[C@@H]1C[C@@H](C)[C@@H]2C=C[C@H]3CCN(C(=O)[C@@H]4CC[C@H]5C=C[C@]6(CCCN6C(=O)[C@H](Cc6ccccc6Cl)NC(C)=O)C(=O)N54)[C@@H]3C(=O)N12` [Compound III], binding at VASP-EVH1 [6] was characterised by a dissociation constant (Kd) of 0.28 µM. Also, the “inhibition of ena/VASP-EVH1-mediated protein-protein interactions” value in the data set with ena/VASP-EVH1 is recorded as “selectively inhibit”. Besides, the “inhibition of migration of MDA MB 231 breast cancer cells” value in data set [7] is “more than 90%”. In the data set on cells, the cellular toxicity result is on record as “non-toxic to cells”.
Consider `CC(=O)N[C@@H](CO)C(=O)N[C@@H](Cc1ccccc1)C(=O)N[C@@H](CCC(=O)O)C(=O)N[C@@H](Cc1ccccc1)C(=O)N1CCC[C@H]1C(=O)N1CCC[C@H]1C(=O)N1CCC[C@H]1C(=O)N1CCC[C@H]1C(=O)N[C@H](C(=O)N[C@@H](CCC(=O)O)C(=O)N[C@@H](CC(=O)O)C(=O)N[C@@H](CCC(=O)O)C(=O)N[C@@H](CC(C)C)C(N)=O)[C@@H](C)O` [reference compound], for which, at EVH-1 domain [1], the Kd stood at 20 µM.
As to Ac-Phe(2-Cl)-PP[ProM-9]-OH, at EVH-1 domain [1], the Kd stood at 8 µM and the “ITC ΔG” value was -6.96 kcal/mol. Moreover, on EVH-1 domain [2], the affinity, expressed as Kd, was 0.4 µM and the “FT ΔG” value was -8.77 kcal/mol.
Turning to `CCOC(=O)[C@@H]1C[C@@H](CC)[C@@H]2C=C[C@H]3CCN(C(=O)[C@@H]4CC[C@H]5C=C[C@]6(CCCN6C(=O)[C@H](Cc6ccccc6Cl)NC(C)=O)C(=O)N54)[C@@H]3C(=O)N12` [Ac[2-Cl—F][ProM-2][ProM-13]-OEt, Ac-Phe(2-CI)-[ProM-2][ProM-13]-OEt], the Kd on VASP-EVH1 [8] was 0.4 µM; at VASP-EVH1 [9] it was 0.49 µM; on EnaH-EVH1 [10], 0.18 µM; at EnaH-EVH1 [11], 0.31 µM; at EVL-EVH1 [12], 0.13 µM; at EVL-EVH1 [13], 0.28 µM. In addition, the “affinity for the target” value in the data set on ena/VASP-EVH1 is “particularly strong affinity”.
In general, half-life refers to the time in which the quantity being followed falls by half. By microsomal CLint is commonly meant the capacity of the preparation to metabolise the compound, expressed as a volume cleared per time. The term fraction unbound denotes free concentration divided by total concentration. For `CCOC(=O)C1CCC2C=CC3CCN(C(=O)C4CCC5C=CC6(CCCN6C(=O)C(Cc6ccccc6Cl)NC(C)=O)C(=O)N54)C3C(=O)N21` (stereo not shown) [Compound 4D, Ac-Phe(2-CI)-[ProM-2][ProM-1]-OEt], the Kd on VASP-EVH1 [8] was found to be 6.2 µM; at VASP-EVH1 [9], 9.4 µM; at EnaH-EVH1 [10], 4.1 µM; at EnaH-EVH1 [11], 7.8 µM; at EVL-EVH1 [12], 4.1 µM; at EVL-EVH1 [13], 5.8 µM. Besides, the “Plasma stability, % remaining (Tlast 240 min)” value in “in vitro [3]” (human) is given as 95.5%; in the data set “in vitro [3]” (mouse), 87.4%. Further, the half-life was above 4 h in “in vitro [3]” (human), above 4 h in “in vitro [3]” (mouse), above 1 h in “in vitro [4]” and above 1 h in “in vitro [5]”. Further, the microsomal CLint in “in vitro [4]” turned out to be 35.6 µL/min/mg; in the data set “in vitro [5]”, 26.4 µL/min/mg. For the same compound, the fraction unbound is 0.981 in the data set “in vitro [14]” and 0.924 in “in vitro [15]”.
With “NBD-Phe(2-CI)-[ProM-2]-[ProM-1]-OEt [NBD-Phe(2-CI)-[ProM-2][ProM-1]-OEt]”, in the data set with target cells, the “ability to be absorbed by the target cells” value is reported as “improved”.
Turning to `CC(=O)NC(Cc1ccccc1Cl)C(=O)N1CCCC12C=CC1CCC(C(=O)N3CCC4C=CC5CCC(C(=O)O)N5C(=O)C43)N1C2=O` (stereo not shown) [Ac-Phe(2-Cl)-[ProM-2][ProM-1]-OH, Ac-Phe(2-CI)-[ProM-2]-[ProM-1]-OH], on EVH-1 domain [1], the dissociation constant Kd is 3.8 µM and the “ITC ΔG” value was -7.41 kcal/mol. Further, at EVH-1 domain [2], the Kd was determined as 2.7 µM and the “FT ΔG” value is -7.6 kcal/mol. For the same compound, the “improvement of the binding affinity by a factor (FT)” value in the data set with EVH-1 domain [2] (in comparison to Ac-Phe(2-CI)-PP[ProM-1]-OH) is reported as 1.2.
